Measured values as given in ChEMBL document CHEMBL3885881, “DrugMatrix”.

Species on record: Rattus norvegicus
Test: DrugMatrix - Regimen: Daily Repeat
Format: toxicity, organism-based, Sprague-Dawley
Parameters: regimen Daily Repeat, gender Male, age 6-8 weeks
Conditions: in vivo, po, route oral GAVAGE, […]; for ABSOLUTE BASOPHIL / ABSOLUTE EOSINOPHIL / ABSOLUTE LYMPHOCYTE / ABSOLUTE MONOCYTE / ABSOLUTE SEGMENTED NEUTROPHIL / BASOPHIL / EOSINOPHIL / ERYTHROCYTE COUNT / HEMATOCRIT / HEMOGLOBIN / LEUKOCYTE COUNT / LYMPHOCYTE / MEAN CORPUSCULAR HEMOGLOBIN / MEAN CORPUSCULAR HEMOGLOBIN CONCENTRATION / MEAN CORPUSCULAR VOLUME / MONOCYTE / NEUTROPHIL / NUCLEATED RED BLOOD CELLS / PLATELET COUNT: tissue Blood; for ALANINE AMINOTRANSFERASE / ALBUMIN / ALKALINE PHOSPHATASE / ASPARTATE AMINOTRANSFERASE / BLOOD UREA NITROGEN / CARBON DIOXIDE / CHLORIDE / CHOLESTEROL / CREATINE PHOSPHOKINASE / CREATININE / GLUCOSE / LACTATE DEHYDROGENASE / LIPASE / PHOSPHORUS / POTASSIUM / SODIUM / TOTAL BILIRUBIN / TOTAL PROTEIN / URIC ACID: tissue Plasma
[1] = 0 mg/kg, 72 h, dose level Control, time 3 day
[2] = 0 mg/kg, 120 h, dose level Control, time 5 day
[3] = 5 mg/kg, 72 h, dose level Low, time 3 day

O=C(Nc1ccc(Cl)c(Cl)c1)c1cc(Cl)cc(Cl)c1O [3,3',4',5-TETRACHLOROSALICYLANILIDE]
ABSOLUTE BASOPHIL [1]: 0 CELLS/uL | ABSOLUTE EOSINOPHIL [1]: 0 CELLS/uL | ABSOLUTE LYMPHOCYTE [1]: 11091.17 CELLS/uL | ABSOLUTE MONOCYTE [1]: 172.17 CELLS/uL | ABSOLUTE SEGMENTED NEUTROPHIL [1]: 1186.67 CELLS/uL | BASOPHIL [1]: 0% | EOSINOPHIL [1]: 0% | ERYTHROCYTE COUNT [1]: 5.87 x10E6/uL | HEMATOCRIT [1]: 36.87% | HEMOGLOBIN [1]: 14.03 G/DL | LEUKOCYTE COUNT [1]: 12.45 x10E3/uL | LYMPHOCYTE [1]: 88.67% | MEAN CORPUSCULAR HEMOGLOBIN [1]: 23.93 pg | MEAN CORPUSCULAR HEMOGLOBIN CONCENTRATION [1]: 38.1 G/DL | MEAN CORPUSCULAR VOLUME [1]: 62.73 fL | MONOCYTE [1]: 1.5% | NEUTROPHIL [1]: 9.83% | NUCLEATED RED BLOOD CELLS [1]: 0 /100WBC | PLATELET COUNT [1]: 1150.33 x10E3/uL | ALANINE AMINOTRANSFERASE [1]: 67.17 u/L | ALBUMIN [1]: 4.03 G/DL | ALKALINE PHOSPHATASE [1]: 462.5 u/L | ASPARTATE AMINOTRANSFERASE [1]: 88 u/L | BLOOD UREA NITROGEN [1]: 13.17 mg/dL | CARBON DIOXIDE [1]: 29.33 mmol/L | CHLORIDE [1]: 101 MEQ/L | CHOLESTEROL [1]: 69.17 mg/dL | CREATINE PHOSPHOKINASE [1]: 292.5 u/L | CREATININE [1]: 0.17 mg/dL | GLUCOSE [1]: 167.5 mg/dL | LACTATE DEHYDROGENASE [1]: 198.5 u/L | LIPASE [1]: 10.67 u/L | PHOSPHORUS [1]: 11.73 mg/dL | POTASSIUM [1]: 5.91 MEQ/L | SODIUM [1]: 143.3 MEQ/L | TOTAL BILIRUBIN [1]: 0.18 mg/dL | TOTAL PROTEIN [1]: 5.7 G/DL | URIC ACID [1]: 1.3 mg/dL | ABSOLUTE BASOPHIL [2]: 0 CELLS/uL | ABSOLUTE EOSINOPHIL [2]: 64.33 CELLS/uL | ABSOLUTE LYMPHOCYTE [2]: 12494.67 CELLS/uL | ABSOLUTE MONOCYTE [2]: 117 CELLS/uL | ABSOLUTE SEGMENTED NEUTROPHIL [2]: 1340.67 CELLS/uL | BASOPHIL [2]: 0% | EOSINOPHIL [2]: 0.33% | ERYTHROCYTE COUNT [2]: 5.82 x10E6/uL | HEMATOCRIT [2]: 36.97% | HEMOGLOBIN [2]: 14.18 G/DL | LEUKOCYTE COUNT [2]: 14.02 x10E3/uL | LYMPHOCYTE [2]: 89% | MEAN CORPUSCULAR HEMOGLOBIN [2]: 24.42 pg | MEAN CORPUSCULAR HEMOGLOBIN CONCENTRATION [2]: 38.4 G/DL | MEAN CORPUSCULAR VOLUME [2]: 63.52 fL | MONOCYTE [2]: 0.83% | NEUTROPHIL [2]: 9.83% | NUCLEATED RED BLOOD CELLS [2]: 0 /100WBC | PLATELET COUNT [2]: 1097.83 x10E3/uL | ALANINE AMINOTRANSFERASE [2]: 58.83 u/L | ALBUMIN [2]: 3.92 G/DL | ALKALINE PHOSPHATASE [2]: 414.17 u/L | ASPARTATE AMINOTRANSFERASE [2]: 89.17 u/L | BLOOD UREA NITROGEN [2]: 16.83 mg/dL | CARBON DIOXIDE [2]: 29.17 mmol/L | CHLORIDE [2]: 100.33 MEQ/L | CHOLESTEROL [2]: 54.5 mg/dL | CREATINE PHOSPHOKINASE [2]: 386.17 u/L | CREATININE [2]: 0.23 mg/dL | GLUCOSE [2]: 184.17 mg/dL | LACTATE DEHYDROGENASE [2]: 229.17 u/L | LIPASE [2]: 10.83 u/L | PHOSPHORUS [2]: 10.88 mg/dL | POTASSIUM [2]: 5.97 MEQ/L | SODIUM [2]: 142.2 MEQ/L | TOTAL BILIRUBIN [2]: 0.12 mg/dL | TOTAL PROTEIN [2]: 5.63 G/DL | URIC ACID [2]: 1.55 mg/dL | ABSOLUTE BASOPHIL [3]: 0 CELLS/uL | ABSOLUTE EOSINOPHIL [3]: 173.67 CELLS/uL | ABSOLUTE LYMPHOCYTE [3]: 11546 CELLS/uL | ABSOLUTE MONOCYTE [3]: 53.33 CELLS/uL | ABSOLUTE SEGMENTED NEUTROPHIL [3]: 1927 CELLS/uL | BASOPHIL [3]: 0% | EOSINOPHIL [3]: 1.33% | ERYTHROCYTE COUNT [3]: 5.84 x10E6/uL | HEMATOCRIT [3]: 36.37% | HEMOGLOBIN [3]: 14.03 G/DL | LEUKOCYTE COUNT [3]: 13.7 x10E3/uL | LYMPHOCYTE [3]: 84% | MEAN CORPUSCULAR HEMOGLOBIN [3]: 24.03 pg | MEAN CORPUSCULAR HEMOGLOBIN CONCENTRATION [3]: 38.6 G/DL | MEAN CORPUSCULAR VOLUME [3]: 62.27 fL | MONOCYTE [3]: 0.33% | NEUTROPHIL [3]: 14.33% | NUCLEATED RED BLOOD CELLS [3]: 0 /100WBC | PLATELET COUNT [3]: 1088.67 x10E3/uL | ALANINE AMINOTRANSFERASE [3]: 64 u/L | ALBUMIN [3]: 3.97 G/DL | ALKALINE PHOSPHATASE [3]: 434.67 u/L | ASPARTATE AMINOTRANSFERASE [3]: 108.33 u/L | BLOOD UREA NITROGEN [3]: 14 mg/dL | CARBON DIOXIDE [3]: 23 mmol/L | CHLORIDE [3]: 102.33 MEQ/L | CHOLESTEROL [3]: 66.33 mg/dL | CREATINE PHOSPHOKINASE [3]: 588 u/L | CREATININE [3]: 0.19 mg/dL | GLUCOSE [3]: 171.67 mg/dL | LACTATE DEHYDROGENASE [3]: 260 u/L | LIPASE [3]: 9.67 u/L | PHOSPHORUS [3]: 12.87 mg/dL | POTASSIUM [3]: 6.31 MEQ/L | SODIUM [3]: 141.93 MEQ/L | TOTAL BILIRUBIN [3]: 0.13 mg/dL | TOTAL PROTEIN [3]: 5.57 G/DL | URIC ACID [3]: 1.83 mg/dL
